From patent publication US20230172203A1, “PLANT METABOLISM PROMOTING COMPOSITIONS AND METHODS OF USE” (Panoptic Ag Solutions LLC, priority 2021, published 2023)

Columns and labels:
Type in all cases: in vivo
[1] = test system: Mature apple trees; assay: 2021 New York Replicated Apple Field Trial
Description: Mature apple trees (n=6) were treated with a 20% aqueous L-theanine solution at 1 pint per acre with application timings at Pink Bud, Bloom, Petal Fall, and every 2 weeks from Petal Fall until harvest.

[2] = test system: Dwarf sunflower; assay: 2021 Greenhouse Sunflower Trial
Excerpt: The base formulation used in greenhouse trials was an aqueous solution of L-theanine (20% by weight). The base formulation was further diluted with water as detailed for each trial. Dwarf sunflower seeds (n=9/treatment) were planted in commercial potting soil in 1-gallon pots. Approximately 14 days after emergence, an L-theanine solution was applied to the foliage at the equivalent of 8 fl. oz./acre in 50 gallons of water (125 ppm) and sprayed till run off. One application was made.

[3] = test system: Almond trees; assay: 2021 Replicated California Almond Trial
Description: Almond trees (n=6) were treated with a 20% aqueous solution of L-theanine at 1 pint per acre at pink bud and full bloom. Additional applications at 0.5 pint per acre soil were applied at petal fall, petal fall +3 weeks, and petal fall +6 weeks for a total of applications. The trial was maintained at grower standard fertilizer and pest management throughout the course of the trial.

[4] = test system: Corn seed; assay: 2020 Greenhouse Corn Seed Treatment Trial
Description: (§1) The base formulation used in greenhouse trials was an aqueous solution of L-theanine (20% by weight). The base formulation was further diluted with water as detailed for each trial. Corn seed (n=9/treatment) was treated with an aqueous solution of L-theanine at a rate of 1.0 fl. oz. per hundredweight of corn seed. The seeds were planted in commercial potting soil in 1-gallon pots. The plants were grown for 21 days before they were harvested.

[5] = test system: Onions; assay: 2021 Pennsylvania Onion Replicated Field Trial
Description: Onions were maintained under grower standard practices. Four replications were performed per treatment. In this trial, applications of L-theanine were performed every 14 days for a total of 4 applications.

[6] = test system: Soybean plants; assay: 2021 Greenhouse Soybean Trial (foliar application)
Description: The base formulation used in greenhouse trials was an aqueous solution of L-theanine (20% by weight). The base formulation was further diluted with water as detailed for each trial. Soybean seeds (n=12/treatment) were planted in commercial potting soil in 1 gallon pots. […] The plants were grown for another 14 days then harvested.

[7] = test system: Rutgers variety tomato plant seedlings; assay: 2021 Greenhouse Tomato Trial
Excerpt: The base formulation used in greenhouse trials was an aqueous solution of L-theanine (20% by weight). The base formulation was further diluted with water as detailed for each trial. Rutgers variety tomato plant seedlings (n=6/treatment) were planted in commercial potting soil and then were transplanted to 3 gallon pots. L-theanine treatment was applied at the equivalent of 1 pint in 100 gallons of water (125 ppm) and sprayed till runoff. Two treatment applications were made to the plants approximately 14 days apart.

[8] = test system: Soybean seed; assay: 2020 Greenhouse Soybean Seed Treatment Trial
Description: as §1, with “Soybean” for “Corn”, “(n=32/treatment)” for “(n=9/treatment)”, “soybean” for “corn”

[9] = test system: Corn plants; assay: 2021 Greenhouse Corn Trial (drench, two rates); conditions: for Plant Biomass / Root Length: drench 50 mL per pot, harvested 21 days later
Description: The base formulation used in greenhouse trials was an aqueous solution of L-theanine (20% by weight). The base formulation was further diluted with water as detailed for each trial. Corn seed (n=14/treatment) was planted in commercial potting soil in 3-gallon pots. Approximately 14 days after emergence, an aqueous solution of L-theanine was applied at a rate of 0.2 mL (Treatment 2) and 0.4 mL (Treatment 3) per 1000 mL water. The resulting solutions were drenched at a rate of 50 mL per pot. The plants were grown for an additional 21 days then harvested.

[10] = 20% aqueous solution at 1 pint per acre, Pink Bud, Bloom, Petal Fall, then every 2 weeks until harvest
[11] = foliar, 8 fl. oz./acre in 50 gallons of water (125 ppm), one application
[12] = over the untreated check, 125 ppm foliar, one application
[13] = over the untreated check, seed treatment
[14] = seed treatment 1.0 fl. oz. per hundredweight of seed, harvested after 21 days
[15] = vs untreated check, 4 applications
[16] = above the untreated check, foliar 125 ppm
[17] = foliar, 8 fl. oz./50 gallons of water (125 ppm) till runoff, harvested 14 days later
[18] = foliar spray 125 ppm till runoff, two applications ~14 days apart
[19] = vs untreated check, 125 ppm foliar, two applications
[20] = Treatment 2 (0.2 mL per 1000 mL), above the untreated check
[21] = Treatment 2: 8 fl. oz./acre (0.2 mL per 1000 mL water)
[22] = Treatment 3 (0.4 mL per 1000 mL), above the untreated check
[23] = Treatment 3: 16 fl. oz./acre (0.4 mL per 1000 mL water)

SMILES: CCNC(=O)CC[C@H](N)C(=O)O [L-theanine]
- Defects [1, 10]: 114.5 a bu/acre
- Salable Yield [1, 10]: 837.8 a bu/acre
- Total Yield [1, 10]: 952.3 a bu/acre
- increase in salable yield, percent ([1]; vs untreated check): 12.5%
- number of defective fruits (in words) ([1]; vs untreated check): reduced the number of defective fruits
- increase in salable yield ([1]; vs untreated check, 1 bushel=48 lbs): 93.1 bushels/acre
- Root Length [2, 11]: 1765.1 a cm
- Root Surface Area [2, 11]: 491.1 a cm^2
- Root Volume [2, 11]: 10.9 a cm^3
- Plant Biomass ([2]; foliar, 8 fl. oz./acre in 50 gallons of water (125 ppm), one application ~14 days after emergence): 38.63 a g
- increase in biomass [2, 12]: 4.4 grams
- increase in biomass, percent [2, 12]: 12.8%
- increase in root length [2, 12]: 70.5 cm
- increase in root length, percent [2, 12]: 4.2%
- increase in root surface area [2, 12]: 61.5 cm^2
- increase in root surface area, percent [2, 12]: 14.3%
- increase in root volume [2, 12]: 2.2 cm^3
- increase in root volume, percent [2, 12]: 25.3%
- Yield ([3]; 20% aqueous solution, 1 pint per acre at pink bud and full bloom, 0.5 pint per acre soil at petal fall, +3 weeks, +6 weeks): 152.2 a lbs/tree
- increase in almond yield (average) ([3]; vs untreated check): 15.3 lbs per tree
- increase in almond yield, percent ([3]; vs untreated check): 11.2%
- increase in biomass [4, 13]: 1.3 g
- increase in biomass, percent [4, 13]: 4.4%
- increase in root length [4, 13]: 69.1 cm
- increase in root length, percent [4, 13]: 7.0%
- increase in root tips [4, 13]: 883.8
- increase in root tips, percent [4, 13]: 18.5%
- Plant Biomass [4, 14]: 29.88 a g
- Root Length [4, 14]: 1049.08 a cm
- Root Tips (#) [4, 14]: 5656.2 a #
- Fresh Onion Mass ([5]; applications every 14 days, total of 4 applications): 227 a g
- size and uniformity of onions (FIG. 2, in words) ([5]; treated over untreated onions): increase in size and uniformity
- increase in biomass of the onions [5, 15]: 75.0 g
- increase in biomass of the onions, percent [5, 15]: 49.3%
- increase in biomass [6, 16]: 2.2 g
- increase in biomass, percent [6, 16]: 20.1%
- increase in root length [6, 16]: 254.6 cm
- increase in root length, percent [6, 16]: 13.2%
- increase in root tips [6, 16]: 1345.1
- increase in root tips, percent [6, 16]: 36.1%
- Plant Biomass [6, 17]: 13.02 a g
- Root Length [6, 17]: 2185.8 a cm
- Root Tips (count) [6, 17]: 5075.9 a count
- Basal Diameter [7, 18]: 6.75 a mm
- Fruit (count) [7, 18]: 8.25 a count
- Leaf (count) [7, 18]: 5 a count
- Plant Height [7, 18]: 21.25 a in
- increase in basal diameter [7, 19]: 1.1 mm
- increase in basal diameter, percent [7, 19]: 19.5%
- increase in fruit count [7, 19]: 3.75
- increase in fruit count, percent [7, 19]: 83.3%
- increase in plant height [7, 19]: 2.5 in
- increase in plant height, percent [7, 19]: 13.3%
- increase in biomass [8, 13]: 0.43 g
- increase in biomass, percent [8, 13]: 8.0%
- increase in root length [8, 13]: 94.4 cm
- increase in root length, percent [8, 13]: 8.1%
- increase in root tips [8, 13]: 763.4
- increase in root tips, percent [8, 13]: 21.0%
- Plant Biomass [8, 14]: 5.80 a g
- Root Length [8, 14]: 1263.7 a cm
- Root Tips (count) [8, 14]: 4392.0 a count
- change in biomass [9, 20]: 9.0 grams
- change in biomass, percent [9, 20]: 13.9%
- change in root length [9, 20]: −106.8
- change in root length, percent [9, 20]: −6.0%
- Plant Biomass [9, 21]: 74.0 a g
- Root Length [9, 21]: 1683.8 a cm
- change in biomass [9, 22]: 9.1 grams
- change in biomass, percent [9, 22]: 14.1%
- change in root length [9, 22]: 65.3
- change in root length, relative (in brackets) [9, 22]: 3.6
- Plant Biomass [9, 23]: 74.1 a g
- Root Length [9, 23]: 1855.9 a cm
